Assay results as given in patent US12629336B2, “Compositions and methods of use thereof for treatment of mastitis” (CureMast, Inc., priority 2020, dated 2026).
Where “and” joins values, the source holds several entries; their conditions need not be identical. Equal entries are not always repeated. Where two headings read alike, the source gives them in different places.

Experiments:
epithelial cells = conditions: in vitro, cited from earlier work
bacteria = conditions: in vitro; value in brackets; cited from earlier work
[1] = paper chromatography: migration/release of NAC from monoolein emulsions; format: physicochemical; conditions: deionized water as solvent, tetrazolium/ammonia detection
Excerpt: Paper chromatography was utilized to evaluate the release of soluble NAC from the formulations of Examples 1 and 2 using a colorimetric reagent to develop the chromatograms as follows:
Three strips of chromatography paper were marked with pencil to indicate the “origin” and spotted with a small dot of each of the two samples. The third strip was spotted with a drop of aqueous NAC only. Each strip was suspended in a separate jar with deionized water just covering the bottom of the jar. The bottom edge of each paper strip was positioned to be immersed in water, which gradually migrated up the strip. After upward water migration wet approximately 6 to 8 cm of the paper, the “solvent front” was marked with pencil and the strips were allowed to dry completely.
Tetrazolium blue chloride (Sigma no. T4375, lot no. SHBM0991) was dissolved in denatured ethyl alcohol to obtain a 1% solution and transferred to a small spray bottle. The dry chromatography strips were placed in a chemical fume hood, sprayed with the tetrazolium solution, and allowed to dry again. An ammonia chamber was created by coving the bottom of a large glass canister with concentrated ammonium hydroxide and the chromatography paper strips were suspended just above the liquid with the canister covered until a purple color developed, indicating the presence of NAC.

| Rf value of NAC [1] | migration of NAC from the origin [1] | Molecule | cytotoxic limit (CTL) above which epithelial cells are killed (epithelial cells) | cytotoxic limit (CTL) above which epithelial cells are killed (epithelial cells; value in brackets) [%] | minimum inhibitory concentration (MIC) required to kill bacteria (bacteria) [%] |
| --- | --- | --- | --- | --- | --- |
| – | – | polyhexamethylene biguanide hydrochloride [PHMB] | greater than 15 mg per liter | > 0.15 | 0.01 |
| 0.91 and 0.67 | migrated from the origin | CC(=O)N[C@@H](CS)C(=O)O [aqueous NAC, N-acetyl-L-cysteine] | – | – | – |
